Measured values reported in PubChem BioAssay (NCI).
Several values for one entry are separate records, joined by “and”; a condition that tells them apart may be missing. Identical values can stand only once.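 Results reflect a 48-hour exposure of cells in 96-well plates to compound at five concentrations. GI50: concentration for 50% inhibition of growth. At the TGI there is no net growth.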

How the values were obtained:
Test in all cases: DTP human tumour cell line panel, 48 h
T-47D breast = tested on: T-47D breast
IGROV1 ovarian = tested on: IGROV1 ovarian
OVCAR-4 ovarian = tested on: OVCAR-4 ovarian
RXF 393 renal = tested on: RXF 393 renal
DU-145 prostate = tested on: DU-145 prostate
NCI-H23 lung = tested on: NCI-H23 lung
UACC-62 melanoma = tested on: UACC-62 melanoma
ACHN renal = tested on: ACHN renal
SF-539 CNS = tested on: SF-539 CNS
SK-MEL-28 melanoma = tested on: SK-MEL-28 melanoma

## COc1ccc(Cc2nc3cc(OC)c(OC)cc3c(=O)[nH]2)cc1
T-47D breast
  GI50: 21.5 µM
  TGI: > 100 µM
IGROV1 ovarian
  GI50: 4.61 µM
  TGI: > 67.2 µM
OVCAR-4 ovarian
  GI50: 25.4 µM
  TGI: > 100 µM
RXF 393 renal
  GI50: 3.95 µM
  TGI: 24.3 µM
DU-145 prostate
  GI50: 9.38 µM
  TGI: > 67 µM
NCI-H23 lung
  GI50: 4.03 µM
  TGI: 33.1 µM
UACC-62 melanoma
  GI50: 8.74 µM
  TGI: 34.5 µM
ACHN renal
  GI50: 9.14 µM
  TGI: > 100 µM
SF-539 CNS
  GI50: 7.97 µM
  TGI: 39.7 µM
SK-MEL-28 melanoma
  GI50: 11.5 µM
  TGI: 65.1 µM

## Nc1nc(=S)c2[nH]cnc2[nH]1
T-47D breast
  GI50: 0.43 µM and 0.964 µM and 1.25 µM
IGROV1 ovarian
  GI50: 3.23 µM and 6.02 µM
  TGI: > 96.1 µM and 150 µM and 162 µM
OVCAR-4 ovarian
  GI50: 0.573 µM and 4.99 µM
  TGI: > 100 µM and 97.4 µM and 109 µM
RXF 393 renal
  GI50: 0.395 µM and 0.474 µM and 0.984 µM
DU-145 prostate
  GI50: 0.477 µM and 0.538 µM
  TGI: > 32.1 µM and 144 µM and 28.7 µM
NCI-H23 lung
  GI50: 0.481 µM and 3.07 µM
UACC-62 melanoma
  GI50: 0.295 µM and 0.376 µM and 1.26 µM
ACHN renal
  GI50: 0.89 µM and 4.03 µM
  TGI: 41.8 µM and 104 µM
SF-539 CNS
  GI50: 0.483 µM and 0.606 µM and 1.41 µM
  TGI: 68.8 µM [middle of 4 runs]
SK-MEL-28 melanoma
  GI50: 1.94 µM and 6.07 µM
  TGI: 28.8 µM and 162 µM

## COC(=O)c1ccc2[nH]c(O)c(C(=Nc3ccc(N(C)C(=O)CN4CCN(C)CC4)cc3)c3ccccc3)c2c1
T-47D breast
  GI50: 11.9 µM
  TGI: 33.4 µM
IGROV1 ovarian
  GI50: 0.297 µM
  TGI: 1.83 µM
OVCAR-4 ovarian
  GI50: 0.956 µM
  TGI: 2.78 µM
RXF 393 renal
  GI50: 0.422 µM
  TGI: 1.69 µM
DU-145 prostate
  GI50: 1.27 µM
  TGI: 8.98 µM
NCI-H23 lung
  GI50: 1.29 µM
  TGI: 4.14 µM
UACC-62 melanoma
  GI50: 4.02 µM
  TGI: 13.8 µM
ACHN renal
  GI50: 1.13 µM
  TGI: 4.12 µM
SF-539 CNS
  GI50: 0.44 µM
  TGI: 1.72 µM
SK-MEL-28 melanoma
  GI50: 1.62 µM
  TGI: 3.34 µM

## NC(N)=N/N=C(/c1ccccc1)c1ccccc1F
T-47D breast
  GI50: 12.6 µM
  TGI: 41.3 µM
IGROV1 ovarian
  GI50: 2.89 µM
  TGI: > 50 µM
OVCAR-4 ovarian
  GI50: 1.73 µM
  TGI: 32 µM
RXF 393 renal
  GI50: 3 µM
  TGI: 13.9 µM
DU-145 prostate
  GI50: 3.56 µM
  TGI: 16.6 µM
NCI-H23 lung
  GI50: 5.02 µM
  TGI: 27.8 µM
UACC-62 melanoma
  GI50: 4.54 µM
  TGI: 20.7 µM
ACHN renal
  GI50: 4.49 µM
  TGI: 20 µM
SF-539 CNS
  GI50: 0.8 µM
  TGI: 4.59 µM
SK-MEL-28 melanoma
  GI50: 4.69 µM
  TGI: 21.4 µM

## O=C1CCS/C(=N/S(=O)(=O)c2ccc(N3N=C4c5ccccc5CC4C3c3cccs3)cc2)N1Cc1ccccc1 (centres undefined)
T-47D breast
  GI50: 45.6 µM
  TGI: > 100 µM
IGROV1 ovarian
  GI50: 17.4 µM
  TGI: 52.4 µM
OVCAR-4 ovarian
  GI50: 49.3 µM
  TGI: > 100 µM
RXF 393 renal
  GI50: 21.2 µM
  TGI: 63.9 µM
DU-145 prostate
  GI50: 21 µM
  TGI: 52.6 µM
NCI-H23 lung
  GI50: 16.7 µM
  TGI: 31.8 µM
UACC-62 melanoma
  GI50: 16.7 µM
  TGI: 32.3 µM
ACHN renal
  GI50: 14.9 µM
  TGI: 32.9 µM
SF-539 CNS
  GI50: 21.8 µM
  TGI: 44.4 µM
SK-MEL-28 melanoma
  GI50: 42.1 µM
  TGI: > 100 µM

## CC1(C)CC[C@]2(C(=O)O)CC[C@]3(C)C(=CC[C@@H]4[C@@]5(C)C/C(=C/c6ccco6)C(=O)C(C)(C)[C@@H]5CC[C@]43C)[C@@H]2C1
T-47D breast
  GI50: 3.23 µM
  TGI: 48.4 µM
IGROV1 ovarian
  GI50: 4.48 µM
  TGI: 22.2 µM
OVCAR-4 ovarian
  GI50: 3.76 µM
  TGI: 41.1 µM
RXF 393 renal
  GI50: 3.3 µM
  TGI: 13.6 µM
DU-145 prostate
  GI50: 4.02 µM
  TGI: 15.1 µM
NCI-H23 lung
  GI50: 3.13 µM
  TGI: 17.6 µM
UACC-62 melanoma
  GI50: 3.06 µM
  TGI: 12.8 µM
ACHN renal
  GI50: 2.89 µM
  TGI: 11.1 µM
SF-539 CNS
  GI50: 3.34 µM
  TGI: 11.6 µM
SK-MEL-28 melanoma
  GI50: 4.35 µM
  TGI: 17.4 µM

## O=c1nc2[nH]c3c(-c4n[nH]c(=O)[nH]c4=O)cccc3c2n[nH]1
T-47D breast
  GI50: > 100 µM
  TGI: > 100 µM
IGROV1 ovarian
  GI50: > 100 µM
  TGI: > 100 µM
OVCAR-4 ovarian
  GI50: > 100 µM
  TGI: > 100 µM
RXF 393 renal
  GI50: > 100 µM
  TGI: > 100 µM
DU-145 prostate
  GI50: > 100 µM
  TGI: > 100 µM
NCI-H23 lung
  GI50: > 100 µM
  TGI: > 100 µM
UACC-62 melanoma
  GI50: > 100 µM
  TGI: > 100 µM
ACHN renal
  GI50: > 100 µM
  TGI: > 100 µM
SF-539 CNS
  GI50: > 100 µM
  TGI: > 100 µM
SK-MEL-28 melanoma
  GI50: > 100 µM
  TGI: > 100 µM

## COC(=O)[C@H](Cc1cn(C)cn1)NC(=O)[C@@H](NC(=O)Nc1cc(C(F)(F)F)cc(C(F)(F)F)c1)C(C)C
T-47D breast
  GI50: 3.14 µM
  TGI: > 10 µM
IGROV1 ovarian
  GI50: 6.15 µM
  TGI: > 10 µM
OVCAR-4 ovarian
  GI50: 4.58 µM
  TGI: > 10 µM
RXF 393 renal
  GI50: 1.96 µM
  TGI: 4.08 µM
DU-145 prostate
  GI50: > 10 µM
  TGI: > 10 µM
NCI-H23 lung
  GI50: 4.6 µM
  TGI: > 10 µM
UACC-62 melanoma
  GI50: 8.58 µM
  TGI: > 10 µM
ACHN renal
  GI50: > 10 µM
  TGI: > 10 µM
SF-539 CNS
  GI50: > 10 µM
  TGI: > 10 µM
SK-MEL-28 melanoma
  GI50: 2.05 µM
  TGI: 4.99 µM

## C=C(Cn1c2ccccc2c(=O)c2ccccc21)c1ccc(C(=O)Nc2ccccc2N)cc1
T-47D breast
  GI50: 2.8 µM
  TGI: > 80 µM
IGROV1 ovarian
  GI50: > 19.8 µM
  TGI: > 100 µM
OVCAR-4 ovarian
  GI50: 0.0786 µM
  TGI: 6.06 µM
RXF 393 renal
  GI50: > 100 µM
  TGI: > 100 µM
DU-145 prostate
  GI50: > 100 µM
  TGI: > 100 µM
NCI-H23 lung
  GI50: 45.1 µM
  TGI: > 100 µM
UACC-62 melanoma
  GI50: > 100 µM
  TGI: > 100 µM
ACHN renal
  GI50: > 100 µM
  TGI: > 100 µM
SF-539 CNS
  GI50: 3.59 µM
  TGI: > 100 µM
SK-MEL-28 melanoma
  GI50: > 100 µM
  TGI: > 100 µM

## N/C(=N\C(N)=N\c1nc2ccccc2s1)c1cnccn1
T-47D breast
  GI50: 2.24 µM
  TGI: 6.22 µM
OVCAR-4 ovarian
  GI50: 3.38 µM
  TGI: > 100 µM
RXF 393 renal
  GI50: 1.93 µM
  TGI: 3.96 µM
DU-145 prostate
  GI50: 4.34 µM
  TGI: > 100 µM
NCI-H23 lung
  GI50: 3 µM
  TGI: 24.8 µM
UACC-62 melanoma
  GI50: 1.74 µM
  TGI: 3.52 µM
ACHN renal
  GI50: 2.51 µM
  TGI: 6.6 µM
SF-539 CNS
  GI50: 2.07 µM
  TGI: 4.12 µM
SK-MEL-28 melanoma
  GI50: 2.3 µM
  TGI: 6.06 µM

## O=C(OC[C@@H]1CO1)c1cccc2c(=O)c3ccccc3[nH]c12
T-47D breast
  GI50: 0.89 µM
  TGI: 5.55 µM
IGROV1 ovarian
  GI50: 0.329 µM
  TGI: 1.83 µM
OVCAR-4 ovarian
  GI50: 0.671 µM
  TGI: 4.72 µM
RXF 393 renal
  GI50: 0.207 µM
  TGI: 0.515 µM
DU-145 prostate
  GI50: 0.335 µM
  TGI: 1.29 µM
NCI-H23 lung
  GI50: 0.288 µM
  TGI: 1.25 µM
UACC-62 melanoma
  GI50: 0.229 µM
  TGI: 0.56 µM
ACHN renal
  GI50: 0.107 µM
  TGI: 0.305 µM
SF-539 CNS
  GI50: 0.344 µM
  TGI: 1.97 µM
SK-MEL-28 melanoma
  GI50: 0.396 µM
  TGI: 2.07 µM

## C#Cc1cccc(NC(=O)C2CCCN(C(=O)CCl)C2)c1 (centres undefined)
T-47D breast
  GI50: > 82.5 µM
  TGI: > 82.5 µM
IGROV1 ovarian
  GI50: 14.3 µM
  TGI: 33.3 µM
OVCAR-4 ovarian
  GI50: 19.5 µM
  TGI: 52.8 µM
RXF 393 renal
  GI50: > 82.5 µM
  TGI: > 82.5 µM
DU-145 prostate
  GI50: > 82.5 µM
  TGI: > 82.5 µM
NCI-H23 lung
  GI50: 21.8 µM
  TGI: > 82.5 µM
UACC-62 melanoma
  GI50: > 82.5 µM
  TGI: > 82.5 µM
ACHN renal
  GI50: 16.1 µM
  TGI: 31.6 µM
SF-539 CNS
  GI50: > 82.5 µM
  TGI: > 82.5 µM
SK-MEL-28 melanoma
  GI50: > 82.5 µM
  TGI: > 82.5 µM
